The target in assay [1] is T1, human recombinant P2X7 receptors (Homo sapiens, UniProt Q99572).
T1 construct: expressed in transfected cells
T1 sequence (Q99572 1-595): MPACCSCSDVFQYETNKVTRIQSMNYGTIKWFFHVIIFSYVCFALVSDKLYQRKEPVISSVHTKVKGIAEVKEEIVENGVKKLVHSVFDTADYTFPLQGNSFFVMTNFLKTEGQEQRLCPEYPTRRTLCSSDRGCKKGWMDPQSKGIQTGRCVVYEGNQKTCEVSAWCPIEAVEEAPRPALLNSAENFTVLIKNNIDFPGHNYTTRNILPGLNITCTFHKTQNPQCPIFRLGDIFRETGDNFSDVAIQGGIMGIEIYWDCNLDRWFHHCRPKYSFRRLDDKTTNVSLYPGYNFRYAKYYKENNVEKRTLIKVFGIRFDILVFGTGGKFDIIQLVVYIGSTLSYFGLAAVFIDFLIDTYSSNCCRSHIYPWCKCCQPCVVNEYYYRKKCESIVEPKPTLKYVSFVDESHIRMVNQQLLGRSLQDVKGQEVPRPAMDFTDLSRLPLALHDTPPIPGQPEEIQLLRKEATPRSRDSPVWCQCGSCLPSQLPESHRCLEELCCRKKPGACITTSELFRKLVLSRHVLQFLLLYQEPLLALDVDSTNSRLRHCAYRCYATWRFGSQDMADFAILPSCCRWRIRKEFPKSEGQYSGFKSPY
The experiment in a line: Ethidium Accumulation Assay 2 (HEK293 cells, ATP-induced ethidium uptake). It is filed as cell-based. As to conditions: HEK293 cells expressing human P2X7; sometimes mean of more than one measurement; read-out: Assay 2 (antagonist pIC50 for blocking ATP responses) (converted). As to the method: Eithidium Accumulation Assay 2
Human Embryonic Kidney (HEK) 293 cells, stably expressing human recombinant P2X7 receptors, were grown in poly-D-lysine pretreated 96 well plates for 24 hours at 37° C.
The cells were washed with assay buffer (100 μL), before addition of 25 μL of assay buffer and then 25 ul of assay buffer containing the putative P2X7 receptor antagonist compound. The cells were then incubated at room temperature (19-21° C.) for 30 min before addition of ATP solution (50 μM). […] Antagonist pIC50 values for blocking ATP responses were determined using iterative curve fitting techniques.

Assay [2] addresses T1, human recombinant P2X7 receptors. Description: Ethidium Accumulation Assay 1 (HEK293 cells, ATP-induced ethidium uptake). The assay is classed as cell-based. As to conditions: HEK293 cells expressing human P2X7; 1 mM ATP; sometimes mean of more than one measurement; read-out: Assay 1 (antagonist pIC50 for blocking ATP responses) (converted).

`O=C(c1cccc(C(F)(F)F)c1Cl)N1CCn2c(nnc2-c2ccc(F)cn2)C1` [Example 45, 7-{[2-chloro-3-(trifluoromethyl)phenyl]carbonyl}-3-(5-fluoro-2-pyridinyl)-5,6,7,8-tetrahydro[1,2,4]triazolo[4,3-a]pyrazine]: the IC50 in assay [1] and in assay [2] was less than 10 nM in each case.

For `O=C(c1ccc(F)c(Cl)c1Cl)N1CCn2c(nnc2-c2ccc(F)cn2)C1` [Example 114, 7-[(2,3-Dichloro-4-fluorophenyl)carbonyl]-3-(5-fluoro-2-pyridinyl)-5,6,7,8-tetrahydro[1,2,4]triazolo[4,3-a]pyrazine], the IC50 in assay [1] and in assay [2] was less than 10 nM throughout.

Turning to `O=C(c1ccc(F)c(Cl)c1Cl)N1CCn2c(nnc2-c2cccnn2)C1` [Example 168, 7-[(2,3-Dichloro-4-fluorophenyl)carbonyl]-3-(3-pyridazinyl)-5,6,7,8-tetrahydro[1,2,4]triazolo[4,3-a]pyrazine], in assay [1], the IC50 is less than 100 nM.

For the molecule `O=C(c1ccc(Cl)cc1Cl)N1CCn2c(nnc2-c2cnsn2)C1` [Example 160, 7-[(2,4-dichlorophenyl)carbonyl]-3-(1,2,5-thiadiazol-3-yl)-5,6,7,8-tetrahydro[1,2,4]triazolo[4,3-a]pyrazine], in assay [1], the IC50 was less than 100 nM.

Regarding `N#Cc1c(Cl)cccc1C(=O)N1CCn2c(nnc2-c2ccccn2)C1` [Example 204, 2-Chloro-6-{[3-(2-pyridinyl)-5,6-dihydro[1,2,4]triazolo[4,3-a]pyrazin-7(8H)-yl]carbonyl}benzonitrile], the IC50 in assay [1] was less than 10 nM.

`Cc1ccc(C(=O)N2CCn3c(nnc3-c3cnccn3)C2)c(Cl)c1Cl` [Example 152, 7-[(2,3-dichloro-4-methylphenyl)carbonyl]-3-(2-pyrazinyl)-5,6,7,8-tetrahydro[1,2,4]triazolo[4,3-a]pyrazine]: in assay [1], the IC50 is less than 10 nM.

With `O=C(c1ccc(Cl)cc1Cl)N1CCn2c(nnc2-c2ccon2)C1` [Example 161, 7-[(2,4-dichlorophenyl)carbonyl]-3-(3-isoxazolyl)-5,6,7,8-tetrahydro[1,2,4]triazolo[4,3-a]pyrazine], in assay [1], the IC50 is less than 501 nM.

For the molecule `Cc1c(C(=O)N2CCn3c(nnc3-c3cnccn3)C2)ccc(F)c1F` [Example 151, 7-[(3,4-difluoro-2-methylphenyl)carbonyl]-3-(2-pyrazinyl)-5,6,7,8-tetrahydro[1,2,4]triazolo[4,3-a]pyrazine], the IC50 in assay [1] was less than 10 nM.

Consider `O=C(c1cccc(C(F)(F)F)c1Cl)N1CCn2c(nnc2-c2cccnc2O)C1` [Example 163, 3-(7-{[2-chloro-3-(trifluoromethyl)phenyl]carbonyl}-5,6,7,8-tetrahydro[1,2,4]triazolo[4,3-a]pyrazin-3-yl)-2-pyridinol], for which the IC50 in assay [1] is less than 100 nM.

Take `O=C(c1ccc(Cl)c(F)c1Cl)N1CCn2c(nnc2-c2ncccc2O)C1` [Example 175, 2-{7-[(2,4-dichloro-3-fluorophenyl)carbonyl]-5,6,7,8-tetrahydro[1,2,4]triazolo[4,3-a]pyrazin-3-yl}-3-pyridinol]: the IC50 in assay [1] was less than 100 nM.

Consider `Cc1scnc1-c1nnc2n1CCN(C(=O)c1cccc(Cl)c1C)C2` [Example 207, 7-[(3-chloro-2-methylphenyl)carbonyl]-3-(5-methyl-1,3-thiazol-4-yl)-5,6,7,8-tetrahydro[1,2,4]triazolo[4,3-a]pyrazine], for which the IC50 in assay [1] was less than 100 nM.

In the case of `Cc1scnc1-c1nnc2n1CCN(C(=O)c1ccc(Cl)c(F)c1Cl)C2` [Example 197, 7-[(2,4-Dichloro-3-fluorophenyl)carbonyl]-3-(5-methyl-1,3-thiazol-4-yl)-5,6,7,8-tetrahydro[1,2,4]triazolo[4,3-a]pyrazine], the IC50 in assay [1] is less than 10 nM.

With `O=C(c1ccc(Cl)c(F)c1Cl)N1CCn2c(nnc2-c2ncccc2F)C1` [Example 170, 7-[(2,4-dichloro-3-fluorophenyl)carbonyl]-3-(3-fluoro-2-pyridinyl)-5,6,7,8-tetrahydro[1,2,4]triazolo[4,3-a]pyrazine], the IC50 in assay [1] is less than 10 nM.

`O=C(c1ccc(Cl)c(F)c1Cl)N1CCn2c(nnc2-c2ccc(F)cc2O)C1` [Example 150, 2-{7-[(2,4-dichloro-3-fluorophenyl)carbonyl]-5,6,7,8-tetrahydro[1,2,4]triazolo[4,3-a]pyrazin-3-yl}-5-fluorophenol]: in assay [1], the IC50 is less than 100 nM.

As to `Cc1cnc(-c2nnc3n2CCN(C(=O)c2ccc(Cl)c(F)c2Cl)C3)s1` [Example 188, 7-[(2,4-Dichloro-3-fluorophenyl)carbonyl]-3-(5-methyl-1,3-thiazol-2-yl)-5,6,7,8-tetrahydro[1,2,4]triazolo[4,3-a]pyrazine], in assay [1], the IC50 was less than 100 nM.

In the case of `O=C(c1ccc(F)c(Cl)c1Cl)N1CCn2c(nnc2-c2ncns2)C1` [Example 169, 7-[(2,3-dichloro-4-fluorophenyl)carbonyl]-3-(1,2,4-thiadiazol-5-yl)-5,6,7,8-tetrahydro[1,2,4]triazolo[4,3-a]pyrazine], in assay [1], the IC50 is less than 10 nM.

As to `Cc1csnc1-c1nnc2n1CCN(C(=O)c1ccc(Cl)c(F)c1Cl)C2` [Example 203, 7-[(2,4-dichloro-3-fluorophenyl)carbonyl]-3-(4-methyl-3-isothiazolyl)-5,6,7,8-tetrahydro[1,2,4]triazolo[4,3-a]pyrazine], the IC50 in assay [1] was less than 100 nM.

For the molecule `O=C(c1ccc(Cl)c(F)c1Cl)N1CCn2c(nnc2-c2nccs2)C1` [Example 187, 7-[(2,4-Dichloro-3-fluorophenyl)carbonyl]-3-(1,3-thiazol-2-yl)-5,6,7,8-tetrahydro[1,2,4]triazolo[4,3-a]pyrazine], the IC50 in assay [1] is less than 10 nM.

As to `Cc1cc(Cl)ccc1C(=O)N1CCn2c(nnc2-c2cnccn2)C1` [Example 145, 7-[(4-chloro-2-methylphenyl)carbonyl]-3-(2-pyrazinyl)-5,6,7,8-tetrahydro[1,2,4]triazolo[4,3-a]pyrazine], the IC50 in assay [1] was less than 100 nM.

Consider `O=C(c1ccc(Cl)c(F)c1Cl)N1CCn2c(nnc2-c2cnsn2)C1` [Example 190, 7-[(2,4-Dichloro-3-fluorophenyl)carbonyl]-3-(1,2,5-thiadiazol-3-yl)-5,6,7,8-tetrahydro[1,2,4]triazolo[4,3-a]pyrazine], for which the IC50 in assay [1] is less than 10 nM.

As for `Cc1ccc(-c2nnc3n2CCN(C(=O)c2ccc(F)c(Cl)c2Cl)C3)o1` [Example 167, 7-[(2,3-Dichloro-4-fluorophenyl)carbonyl]-3-(5-methyl-2-furanyl)-5,6,7,8-tetrahydro[1,2,4]triazolo[4,3-a]pyrazine], the IC50 in assay [1] was less than 100 nM.

For `O=C(c1ccc(Cl)cc1Cl)N1CCn2c(nnc2-c2ccns2)C1` [Example 158, 7-[(2,4-dichlorophenyl)carbonyl]-3-(5-isothiazolyl)-5,6,7,8-tetrahydro[1,2,4]triazolo[4,3-a]pyrazine], the IC50 in assay [1] is less than 100 nM.

As for `O=C(c1ccc(Cl)c(F)c1Cl)N1CCn2c(nnc2-c2ccns2)C1` [Example 178, 7-[(2,4-dichloro-3-fluorophenyl)carbonyl]-3-(5-isothiazolyl)-5,6,7,8-tetrahydro[1,2,4]triazolo[4,3-a]pyrazine], the IC50 in assay [1] is less than 100 nM.

For the molecule `COc1cccc(-c2nnc3n2CCN(C(=O)c2ccc(Cl)c(F)c2Cl)C3)n1` [Example 176, 7-[(2,4-dichloro-3-fluorophenyl)carbonyl]-3-[6-(methyloxy)-2-pyridinyl]-5,6,7,8-tetrahydro[1,2,4]triazolo[4,3-a]pyrazine], in assay [1], the IC50 is less than 100 nM.

Turning to `Cc1c(C(=O)N2CCn3c(nnc3-c3cnccn3)C2)ccc(F)c1Cl` [Example 146, 7-[(3-chloro-4-fluoro-2-methylphenyl)carbonyl]-3-(2-pyrazinyl)-5,6,7,8-tetrahydro[1,2,4]triazolo[4,3-a]pyrazine], the IC50 in assay [1] was less than 10 nM.

As for `Cc1c(Cl)ccc(C(=O)N2CCn3c(nnc3-c3cnccn3)C2)c1Cl` [Example 154, 7-[(2,4-dichloro-3-methylphenyl)carbonyl]-3-(2-pyrazinyl)-5,6,7,8-tetrahydro[1,2,4]triazolo[4,3-a]pyrazine], in assay [1], the IC50 is less than 10 nM.

Take `O=C(c1ccc(Cl)c(F)c1Cl)N1CCn2c(nnc2-c2csnn2)C1` [Example 189, 7-[(2,4-Dichloro-3-fluorophenyl)carbonyl]-3-(1,2,3-thiadiazol-4-yl)-5,6,7,8-tetrahydro[1,2,4]triazolo[4,3-a]pyrazine]: in assay [1], the IC50 was less than 100 nM.

Take `O=C(c1ccc(Cl)c(F)c1Cl)N1CCn2c(nnc2-c2ncns2)C1` [Example 186, 7-[(2,4-Dichloro-3-fluorophenyl)carbonyl]-3-(1,2,4-thiadiazol-5-yl)-5,6,7,8-tetrahydro[1,2,4]triazolo[4,3-a]pyrazine]: the IC50 in assay [1] is less than 10 nM.

These data come from patent publication US8501946B2 (Glaxo Group Limited, priority 2009, dated 2013).
